In brackets after ≈: the same amount, converted by molar mass.
Experiments:
Pseudomonas aeruginosa = assay: MIC serial dilution assay; type: cell-based; conditions: Pseudomonas aeruginosa PA14; overnight, 37 °C; reference gentamicin 0.1 mg/mL; read-out: Minimum Inhibitory Concentration (MIC)
Experimental: (§1) Compounds 1, 2, 4 and 5 were dissolved in MeOH (1 mg/mL) for the antimicrobial activity assay, while compound 3 was dissolved in MeOH: DMSO 9+1 (1 mg/mL). The solvents were also used as negative controls.
(§2) Minimum inhibitory concentrations (MIC) were determined in a serial dilution assay, as described previously; a detailed protocol can be found in the Supporting Information. The compounds (1 mg/mL) were diluted to a range of 66.7 to 0.52 µg/mL and incubated with the test organisms overnight. Inhibition of growth was visually evaluated the next day: the MIC is defined as the lowest concentration of the test compound where no growth of the test organism was observed. Various test organisms of fungal and bacterial origin were tested to cover a broad range of microorganisms. This selection is also being used as a standard test panel in our attempts to discover new anti-infectives, as it represents a broad spectrum of pathogens of clinical interest, as well as sensitive indicator strains (bacteria: Bacillus subtilis, Staphylococcus aureus, Micrococcus luteus, Chromobacterium violaceum, Escherichia coli and Pseudomonas aeruginosa; mycobacteria: Mycolicibacterium smegmatis and fungi: Candida albicans, Schizosaccharomyces pombe, Mucor hiemalis, Pichia anomala and Rhodotorula glutinis).
(§3) Protocol: Antimicrobial Activi ty Assay
(§4) The assay was conducted as a minimum inhi bitory concentration (MIC) assay in 96-well ro und-bottom mi crotiter pl ate s usi ng the p ar ameter s su mm ari zed i n T a bl e S 1 and as already described i n [S1].
(§5) Stocks of the test organi sms were generated by growing the organisms o ver ni ght i n 50 mL shaki ng fl asks fi ll ed wi th 25 mL of the growth medi um at 140 rpm (for media and temperatures see Table S1). If the organisms were well grown the ne xt day, which was checked by occurrence of an optical density (OD)>30 of the suspension (OD600 nm for bacteria, OD548 nm for fungi and M. smegma tis) , aliquots of these were stored i n 1.5 mL reaction tube s in a freezer at −80 °C for up to 12 mo nths . Upon use, aliquots were unth awed and the OD of the suspension measured and adjusted by diluting with the respective growth medi um. OD600 nm w as adj usted to 0.01 and OD548 nm to 0.1.
(§6) Subse que ntly, 150 µL o f the adjusted suspensions were added to all wells of a 96-wel l microtiter pl ate (one test organi sm per plate). In row A, additional 130 µL of suspensions plus 20 µL of the test compounds (1 mg/mL) and the controls (one compound/column) were added. MeOH as well as MeOH:DMSO 9+1 were used as negative controls, while different positive controls (refer ences) were used for the test organisms (see Tabl e S1). Then, starti ng from row A, 150 µ L of the suspension were transferred to the next row, the contents thoroughly mixed, and 150 µ L transferred to the following row.
(§7) The remaining 150 µ L after row H were discarded. […]
(§8) compounds, ranging from 66.7 µg/mL i n row A to 0.52 µg/mL i n row H.
(§9) The microtiter plates were then incubated overnight o n a microplate shaker at 800 rpm at 30 or 37 °C (see Table S1) and were visually evaluated the next day. The MIC is defined as the lowest concentration were no growth of the test organism was o bserved. A lower MIC thus corresponds to a higher antimicrobial activity of the test compound.
(§10) Table S1: MIC assay ex per i men t parameters test organism strain No. growth incubation positive control (reference) […]
Pseudomonas a erugi nosa PA14 MHB 1 37 gent amici n 0.1 mg/mL […]
(§11) Rhodotorula glutinis DSM10134 MYC 3 30 nyst ati n 1.0 mg/mL
(§12) 1 MHB: Müller-Hinton Broth (SN X927.1, Ca r l Roth GmbH, Karlsruhe, Germany) 2 7H9+ADC: Middlebrook 7H9 Broth Base + Middlebrook ADC Growth Supplement (SN M0678+M0553, Merck, Darmstadt, Germany)
(§13) 3 MYC: 1 % w/v, bacto peptone, 1% w/v yeast extract, 2 % w /v glycerol, pH 6.3 [S1] Helaly, S.E.; Ashrafi, S.; Teponno, R.B.; Bernecker, S.; Dababat, A.A.; Maier, W.; Stadler, M.
(§14) Nematicidal Cyclic Lipodepsipeptides and a Xanthocillin Derivative from a Phaeosphariaceous […]

Micrococcus luteus = assay: MIC serial dilution assay; type: cell-based; conditions: overnight, 30 °C, reference oxytetracycline 0.1 mg/mL; for MIC: Micrococcus luteus, DSM1790, Micrococcus luteus DSM1790, read-out: Minimum Inhibitory Concentration (MIC)
Experimental: as §1, §2, §3, §4, §5, §6, §7, §8, §9, §10
Micrococcus luteu s DSM1790 MHB 1 30 oxytetr acyclin 0.1 mg/mL […]
as §11, §12, §13, §14

Compound	MIC (Pseudomonas aeruginosa)	MIC (Micrococcus luteus)	Minimum Inhibitory Concentration (MIC) (Micrococcus luteus; Micrococcus luteus DSM1790)
COc1cccc2c3c(ccc12)-c1ccc(O)c2c(OC)ccc-3c12 [Compound 3, viridistratin C]	> 66.7 µg/mL		
COc1cccc2c3c(ccc12)-c1ccc(O)c2c(O)ccc-3c12 [Compound 2, viridistratin B]	> 66.7 µg/mL	8.3 µg/mL (≈ 26.4 µM)	
Oc1cccc2c3c(ccc12)-c1ccc(O)c2c(O)ccc-3c12 [Compound 1, viridistratin A]	> 66.7 µg/mL	16.7 µg/mL (≈ 55.6 µM)	
O=C1CCC(=O)c2c1c(O)cc1c2-c2ccc(O)c3c(O)ccc-1c23 [Compound 5, truncatone C]	> 66.7 µg/mL	16.7 µg/mL (≈ 50.3 µM)	
O=C1C[C@H]2C(=C3CCC(=O)c4c(O)ccc2c43)c2cccc(O)c21 [Compound 4, truncatone A]	> 66.7 µg/mL	16.7 µg/mL (≈ 52.5 µM)	33.3 µg/mL

Reference: paper PMC7277860, “Viridistratins A−C, Antimicrobial and Cytotoxic Benzo[j]fluoranthenes from Stromata of Annulohypoxylon viridistratum (Hypoxylaceae, Ascomycota)” (Biomolecules, 2020)
